Experimental data reported in patent publication US20070293486A1, “Alpha-Keto Carbonyl Calpain Inhibitors” (SANTHERA PHARMACEUTICALS (SCHWEIZ) AG, priority 2004, published 2007).

System: utrophin protein levels in human DMD myotubes
Assay: Utrophin Expression Assay in Human Myotubes
Assay type: cell-based
Details: 50 nM test compound
Method: Utrophin induction was determined by a method which was similar to a method of 1. Courdier-Fruh et al., Neuromuscular Disord., 2002, 12, S95-S104. Primary human muscle cell cultures were prepared from muscle biopsies taken during orthopedic surgery from Duchenne patients (provided by the Association Francaise contre les Myopathies). Cultures were prepared and maintained according to standard protocols. Induction of utrophin expression in human DMD myotubes was assayed at 50 nM or 500 nM of test compound added in differentiation medium. Normalized utrophin protein levels are determined after 56 d of incubation by cell-based ELISA with a mouse monoclonal antibody to the aminoterminal portion of utrophin (NCL-DRP2, Novocastra Laboratories). For calibration, the cell density and differentiation was determined by absorbance measurements of the total dehydrogenase enzyme activity in each well using the calorimetric CellTiter 96®AQ One Solution Reagent Proliferation Assay (Promega) according to the manufacturer's recommendation. Subsequently, cells were fixed, washed, permeabilized with 0.5% (v/v) Triton X-100 and unspecific antibody binding-sites blocked by standard procedures. Utrophin protein levels were determined immunologically with utrophin-specific primary antibody and with an appropriate peroxidase-coupled secondary antibody (Jackson ImmunoResearch Laboratories) using QuantaBlu™ Fluorogenic Peroxidase Substrate Kit (Pierce) for detection. Fluorescence measurements were carried out with a multilabel counter (Wallac) at λex=355 nm and at λem=460 nm. The primary readout of this signal is presented in arbitrary units. For calibration, the arbitrary units representing the relative utrophin protein content of each well was divided by the corresponding cell-titer absorbance value to correct for cell density. For comparison between experiments, the cell-titer corrected readout for utrophin protein content in each well was expressed in percent of solvent treated control cultures (set to 100%), i.e. data are % utrophin protein levels compared to DMSO solvent (N=4).

With `CCNC(=O)C(=O)C(Cc1ccc(OC)cc1)NC(=O)C(CC(C)C)NC(=O)C(Cc1cccc2ccccc12)NC(=O)CCCCC1CCSS1` (stereo not shown) [Example 637] the “UTR Induction @50 nM” value was 121%.
